# Results from US20210023089A1, “Compositions Useful for Treating Herpes Simplex Keratitis, and Methods Using Same” (priority 2013, published 2021).
# Columns and labels:
# HSV-1 = test: Plaque assay of supernatants from HSV-1 infected hTCEpi cells; type: cell-based, HSV-1 (KOS strain)
# Method: All cells were cultured at 37° C. and 5% CO2 and supplemented with 100 U/mL penicillin and […]. Human corneal epithelial cells immortalized with hTERT (hTCEpi; Robertson, et al., 2005, Invest Ophthalmol Vis Sci. 46:470-478) were grown in complete keratinocyte growth medium 2 (KGM-2; Lonza, Basel, Switzerland). African green monkey kidney fibroblasts (CV-1; American Type Culture Collection, Manassas, Va.) were grown in Dulbecco's modified Eagle's medium (DMEM; Cellgro, Manassas, Va.) supplemented with 10% FBS. The KOS strain of HSV-1 was used in the in vitro and ex vivo infections, whereas McKrae strain was used for in vivo mouse experiments, and TK mutant dlsptk strain (Coen et al., 1989, Proc Natl Acad Sci USA 86:4736-4740) was used in the drug resistance experiments. All viral stocks were titered on CV-1 monolayers.
# The following strains of HSV-1 were used: KOS, ICPO-null, HFEM, and tsB7. Subconfluent monolayers of cells were grown in six-well plates. Drug treatments were administered 45 minutes prior to infection and continued for the entire duration of each experiment. Unless indicated otherwise, KU-55933 (Batch No. 5, 99.7% purity; Tocris Bioscience, Bristol, UK) was used at 10 μM final concentration, phosphonoacetic acid (PAA) at 400 μg/mL (Sigma-Aldrich, St. Louis, Mo.), and acyclovir at 50 μg/mL (Sigma-Aldrich). […]
# cleaved caspase-3 = test: Cleaved caspase-3 immunofluorescence in HSV-1 infected explanted human corneas; type: cell-based; details: 10 μM, 48 hpi, vs mock-treated
# Method: Human corneas were obtained from the Lions Eye Bank of Delaware Valley. Rabbit corneas were excised from intact fresh eyeballs of young (8-12 weeks) albino rabbits (Pel-Freez Biologicals, Rogers, Ark.). Protocol (Alekseev et al., 2012, J Vis Exp 69:e3631) for ex vivo corneal culture, infection, and treatment was followed closely. Briefly, corneoscleral buttons were excised and rinsed in PBS containing 200 U/mL penicillin and 200 μg/mL streptomycin. The endothelial concavity was filled with culture medium containing 1% low melting temperature agarose. The corneas were cultured epithelial side up in MEM medium supplemented with nonessential amino acids (1×), 2 mM […], 200 U/mL penicillin, and 200 μg/mL streptomycin. The next day, they were infected with 1×10^4 plaque forming units (PFU)/cornea of strain KOS HSV-1 for 1 hour, rinsed, and overlaid with fresh medium. Drug treatments were administered at the same concentrations as for cultured cells. For KU-55933 bioavailability assessment, corneas were treated with bleomycin (200 μg/mL) for 1 hour. The epithelial cell layer was collected by scraping to isolate DNA or protein. […] Treatment toxicity was assessed by briefly staining the cornea with fluorescein (1% wt/vol in PBS) and imaging the epithelial defects with 464-nm wavelength blue light (LDP LLC, Carlstadt, N.J.). […]
Compound,"generation of infectious viral particles (plaque assay) (HSV-1; MOI 0.1, 10 μM, vs controls)",cleaved caspase-3 staining (apoptosis) in corneal epithelium (cleaved caspase-3),"inhibition of infectious particle production (plaque assay) (HSV-1; MOI 0.1, KU-55933 10 μM, 20 hpi)"
"NC(=O)c1ccc2[nH]c(-c3ccc(Oc4ccc(Cl)cc4)cc3)nc2c1 [Chk2 inhibitor II, 2-(4-(4-chlorophenoxy)phenyl)-1H-benzimidazole-5-carboxamide]",reduction,abrogated,–
"O=c1cc(-c2cccc3c2Sc2ccccc2S3)oc(N2CCOCC2)c1 [KU-55933, 2-(morpholin-4-yl)-6-(thianthren-1-yl)-pyran-4-one]",–,reduction,"greater than 10,000 fold"
